In PubChem BioAssay (NCI):
Values joined by “and” are separate entries in the source; they are usually repeats but may differ in a detail not shown here. Equal entries are not always repeated.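 Tested at 5 concentrations; 48 h exposure; 96-well plates; endpoints linearly interpolated, else capped at highest concentration. GI50: concentration for 50% inhibition of growth. At the TGI there is no net growth.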

Legend:
Test in all cases: NCI anticancer screen, dose series, 48 h
EKVX NSCLC = test system: EKVX NSCLC
HT29 colon = test system: HT29 colon
NCI-H226 lung = test system: NCI-H226 lung
NCI/ADR-RES ovarian = test system: NCI/ADR-RES ovarian
OVCAR-5 ovarian = test system: OVCAR-5 ovarian
OVCAR-8 ovarian = test system: OVCAR-8 ovarian
SNB-19 CNS = test system: SNB-19 CNS
U251 CNS = test system: U251 CNS
UACC-257 melanoma = test system: UACC-257 melanoma
UACC-62 melanoma = test system: UACC-62 melanoma

Compound	TGI (EKVX NSCLC) [µM]	GI50 (HT29 colon)	TGI (HT29 colon)	GI50 (NCI-H226 lung)	TGI (NCI-H226 lung)	GI50 (NCI/ADR-RES ovarian) [µM]	TGI (NCI/ADR-RES ovarian) [µM]	GI50 (OVCAR-5 ovarian)	TGI (OVCAR-5 ovarian)	TGI (OVCAR-8 ovarian) [µM]	TGI (SNB-19 CNS) [µM]	GI50 (U251 CNS)	TGI (U251 CNS) [µM]	GI50 (UACC-257 melanoma) [µM]	TGI (UACC-257 melanoma) [µM]	GI50 (UACC-62 melanoma) [µM]	TGI (UACC-62 melanoma) [µM]	GI50 (EKVX NSCLC) [µM]	GI50 (OVCAR-8 ovarian) [µM]	GI50 (SNB-19 CNS) [µM]
Cc1cc(=O)c2c(O)c3c(O)cc(O)c4c5c(O)cc(O)c6c(O)c7c(=O)cc(C)c8c1c2c(c34)c(c65)c78	> 100	> 100 µM and 19.2 µM	> 100 µM and 43.2 µM	> 100 µM and 16.3 µM	> 100 µM and 44.3 µM	> 100	> 100	> 100 µM and 24.7 µM	> 100 µM and 45.3 µM	> 100	> 100	> 100 µM and 37.3 µM	> 100	> 100	> 100	> 100	> 100	–	–	–
CC(/C=N/NC1=NCCCCN1)=N\NC1=NCCCCN1	> 100	–	> 100 µM	–	> 100 µM	–	> 100	–	> 100 µM	> 100	> 100	–	> 100	–	> 100	–	> 100	–	–	–
Cc1ccccc1NC(=S)N=Nc1c(O)[nH]c2ccccc12	> 100	–	> 100 µM	–	> 100 µM	–	> 100	–	> 100 µM	> 100	> 100	–	> 100	–	> 100	–	> 100	–	–	–
C=CCN1CC2CN=NC2(C#N)C1 (configuration not stated)	> 100	–	> 100 µM	–	> 100 µM	–	> 100	–	> 100 µM	> 100	> 100	–	> 100	–	> 100	–	> 100	–	–	–
C[C@H](CC[C@@H](O)C(C)(C)O)[C@H]1CC[C@@]2(C)[C@@H]3CC=C4[C@@H](CC[C@H](OC5OC(CO)C(O)C(O)C5O)C4(C)C)[C@]3(C)C(=O)C[C@]12C (some centres not stated)	> 100	–	> 100 µM	–	> 100 µM	–	> 100	–	> 100 µM	> 100	> 100	–	> 100	–	> 100	–	> 100	–	–	–
CC1(C)Oc2ccc(Cl)cc2C12CC2	37.9	–	34.7 µM	–	32.2 µM	–	44	–	34.2 µM	28.4	31.5	–	29.4	–	30.1	–	> 100	–	–	–
CC(NC(=O)C(C)C(=O)NCc1ccc(C(F)(F)F)cc1)C(N)=O (configuration not stated)	> 100	–	> 100 µM	–	> 100 µM	–	> 100	–	> 100 µM	> 100	> 100	–	> 100	–	> 100	–	> 100	–	–	–
Oc1c(I)cc(I)cc1CNCCCN(Cc1ccccn1)Cc1ccccn1	2.38	1.74 µM	10.2 µM	0.902 µM	2 µM	1.44	4.29	0.953 µM	2.11 µM	3.27	5.5	1.11 µM	2.68	1.21	3.39	0.907	1.74	1	1.25	1.49
O=[N+]([O-])c1cccc2nc3ccccc3c(NCCC[N+]3([O-])CCCCC3)c12	2.94	–	6.37 µM	–	1.54 µM	–	> 100	–	2.36 µM	13.6	9.18	–	1.24	–	0.55	–	0.805	–	–	–
CC1NOC(NS(=O)(=O)c2ccc(N=Nc3c(O)c(C(=O)O)cc4ccccc34)cc2)C1C (configuration not stated)	> 100	–	> 100 µM	–	> 100 µM	–	> 100	–	> 100 µM	> 100	> 100	–	> 100	–	> 100	–	> 100	–	–	–
c1ccc(C(CCN2CCCC2)c2ccccn2)cc1 (configuration not stated)	> 100	–	> 100 µM	–	> 100 µM	–	> 100	–	> 100 µM	> 100	> 100	–	> 100	–	> 100	–	> 100	–	–	–
CC(C)OC(=O)c1ccc(CCC2=CC(=O)C(Br)=CC2=O)cc1	31.1	–	31.8 µM	–	71.9 µM	–	37.4	–	42.1 µM	32.8	29.2	–	29.8	–	26.9	–	31.3	–	–	–
N#CC1N(C(=O)c2ccc(F)cc2)c2ccccc2N1C(=O)c1ccc(F)cc1	> 100	–	> 100 µM	–	> 100 µM	–	93.5	–	> 100 µM	> 100	> 100	–	> 100	–	> 100	–	> 100	–	–	–
C/C=C/C=C/C1=NN(c2cccc(S(=O)(=O)O)c2)C2(C1)SCC(=O)N2c1nc2ccccc2s1 (configuration not stated)	> 100	–	> 100 µM	–	> 100 µM	–	> 100	–	> 100 µM	> 100	> 100	–	> 100	–	> 100	–	> 100	–	–	–
O=C(c1ccc(Cl)cc1)N(Cc1cccnc1)C(=S)N(Cc1cccnc1)C(=O)c1ccc(Cl)cc1	> 100	–	76.9 µM	–	> 100 µM	–	> 100	–	> 100 µM	85.3	> 100	–	53.6	–	> 100	–	> 100	–	–	–
CC[C@@]1(O)C(=O)OCc2c1cc1n(c2=O)Cc2c-1nc1ccccc1c2/C=N\NC(=O)C(N)CS (some centres not stated)	> 100	–	> 100 µM	–	34.1 µM	–	> 45.2	–	> 100 µM	> 100	> 31.6	–	> 34.5	–	> 100	–	0.761	–	–	–
Cc1cccc2c(N)c3cccc(C(=O)NCC[N+](C)(C)Cc4sc(N5CCOCC5)nc4[N+](=O)[O-])c3nc12	> 100	–	2.74 µM	–	17.4 µM	–	23.3	–	16.4 µM	17.4	> 100	–	> 100	–	43	–	18.6	–	–	–
c1ccc([C@H]2CN3CCSC3=N2)cc1	> 100	–	> 100 µM	–	> 100 µM	–	> 100	–	> 100 µM	> 100	> 100	–	> 100	–	> 100	–	> 100	–	–	–
COc1ccc2[nH]c(C(=O)N3CC(CCl)c4ccc([N+](=O)[O-])cc43)cc2c1 (configuration not stated)	> 100	–	> 100 µM	–	> 100 µM	–	> 100	–	> 100 µM	> 100	> 100	–	> 100	–	> 100	–	> 100	–	–	–
Cc1ccc(S(=O)(=O)n2cc(-c3cnc(N)c(Br)n3)c3ccccc32)cc1	> 100	–	9.57 µM	–	> 100 µM	–	> 25.7	–	> 77.1 µM	> 100	> 46.1	–	> 77.5	–	> 100	–	> 57.2	–	–	–
NCCCCNCCCN	> 100	–	> 100 µM	–	> 100 µM	–	> 100	–	> 100 µM	> 100	> 100	–	> 100	–	> 100	–	> 100	–	–	–
O=C(CCc1cc(O)cc(O)c1)NCCc1ccc(O)c(O)c1	> 100	–	> 100 µM	–	> 100 µM	–	> 100	–	> 100 µM	> 100	> 100	–	> 100	–	> 100	–	> 100	–	–	–
O=C(NN=C1CCCCC1)Nc1ccccc1Cl	> 100	–	> 100 µM	–	> 100 µM	–	63.9	–	> 100 µM	> 100	> 100	–	> 100	–	> 100	–	> 100	–	–	–
O=c1[nH]c(=O)n(C2CC(O)C(CO)O2)cc1NN=NCc1ccccc1 (configuration not stated)	> 100	–	> 100 µM	–	> 100 µM	–	> 100	–	> 100 µM	> 100	> 100	–	> 100	–	> 100	–	> 100	–	–	–
Cc1cc(S(=O)(=O)O)ccc1N=Nc1ccc(N=Nc2c(O)ccc3ccccc23)c(C)c1	> 100	–	> 100 µM	–	> 100 µM	–	> 100	–	> 100 µM	> 100	> 100	–	> 100	–	> 100	–	> 100	–	–	–
